From patent US8293731B2, “HIV integrase inhibitors” (Merck Sharp + Dohme Corp., priority 2005, dated 2012)

What follows are compounds tested on HIV (assay: Assay for inhibition of HIV replication (spread assay): acute HIV infection of T-lymphoid cells). Conditions: Human immunodeficiency virus 1, 'less than about'.
Format: cell-based
Experimental: Assays for the inhibition of acute HIV infection of T-lymphoid cells were conducted in accordance with Vacca, J. P. et al., Proc. Natl. Acad. Set USA 1994, 91: 4096. […] For example, the compounds of Examples 1 to 64 were tested in this assay and found to have IC95 values of less than about 10 micromolar.

SMILES | IC95
C[C@H]1C[C@@H](O)CN(C)C(=O)c2c3c(c(O)c(=O)n21)C(=O)N(Cc1ccc(F)c(Cl)c1)CC3 [Example 43, (4R,6S)-11-(3-Ch1oro-4-fluorobenzyl)-4,9-dihydroxy-2,6-dimethyl-3,4,5,6,12,13-hexahydro-2H[1,4]diazocino[2,1-a]-2,6-naphthyridine-1,8,10(11H)-trione] | < 10 µM
CN1CCC[C@H](CO)n2c(c3c(c(O)c2=O)C(=O)N(Cc2ccc(F)c(Cl)c2)CC3)C1=O [Example 47, (6R)-11-(3-Chloro-4-fluorobenzyl)-9-hydroxy-6-(hydroxymethyl)-2-methyl-3,4,5,6,12,13-hexahydro-2H-[1,4]diazocino[2,1-a]-2,6-naphthyridine-1,8,10(11H)-trione] | < 10 µM
CN1CCC(O)Cn2c(c3c(c(O)c2=O)C(=O)N(Cc2ccc(F)c(Cl)c2)CC3)C1=O (stereo not shown) [Example 37, 11(3-Chloro-4-fluorobenzyl)-5,9-dihydroxy-2-methyl-3,4,5,6,12,13-hexahydro-2H[1,4]diazocino[2,1-a]-2,6-naphthyridine-1,8,10(11H)-trione] | < 10 µM
O=C(O)CN1CCCCn2c(c3c(c(O)c2=O)C(=O)N(Cc2ccc(F)c(Cl)c2)CC3)C1=O [Example 12, [11-(3-Chloro-4-fluorobenzyl)-9-hydroxy-1,8,10-trioxo-1,3,4,5,6,8,10,11,12,13-deca-hydro-2H-[1,4]diazocino[2,1-a]-2,6-naphthyridin-2-yl]acetic acid] | < 10 µM
O=C1OC(CO)Cn2c1c1c(c(O)c2=O)C(=O)N(Cc2ccc(F)c(Cl)c2)CC1 (stereo not shown) [Example 64, 9-(3-Chloro-4-fluorobenzyl)-7-hydroxy-3-(hydroxymethyl)-3,4,10,11-tetrahydro[1,4]oxazino[3,4-a]-2,6-naphthyridine-1,6,8(9H)trione] | < 10 µM
CN1CC(N2CCOCC2)CCn2c(c3c(c(O)c2=O)C(=O)N(Cc2ccc(F)c(Cl)c2)CC3)C1=O (stereo not shown) [Example 27, 11-(3-Chloro-4-fluorobenzyl)-9-hydroxy-2-methyl-4-morpholin-4-yl-3,4,5,6,12,13-hexahydro-2H[1,4]diazocino[2,1-a]-2,6-naphthyridine-1,8,10(11H)-trione] | < 10 µM
C=C1CCCN(C)C(=O)c2c3c(c(O)c(=O)n21)C(=O)N(Cc1ccc(F)c(Cl)c1)CC3 [Example 50, 11-(3-chloro-4-fluorobenzyl)-9-hydroxy-2-methyl-6-methylene-3,4,5,6,12,13-hexahydro-2H-[1,4]diazocino[2,1-a]2,6-naphthyridine-1,8,10(11H)trione] | < 10 µM
CC1CCCN(C)C(=O)c2c3c(c(O)c(=O)n21)C(=O)N(Cc1ccc(F)c(Cl)c1)CC3 (stereo not shown) [Example 28, 11-(3-Chloro-4-fluorobenzyl)-9-hydroxy-2,6-dimethyl-3,4,5,6,12,13-hexahydro-2H[1,4]diazocino[2,1-a]2,6-naphthyridine-1,8,10(11H)-trione] | < 10 µM
CC1(C)C(=O)N(CC(N)=O)c2c3c(c(O)c(=O)n21)C(=O)N(Cc1ccc(F)c(Cl)c1)CC3 [Example 53, 2-[8-(3-Chloro-4-fluorobenzyl)-6-hydroxy-3,3-dimethyl-2,5,7-trioxo-2,3,7,8,9,10-hexahydroimidazo[2,1-a]-2,6-naphthyridin-1(5H)-yl]acetamide] | < 10 µM
CN1CCCCn2c(c3c(c(O)c2=O)C(=O)N(Cc2ccc(F)c(Cl)c2)CC3)C1=O [Example 1, 11-(3-Chloro-4-fluorobenzyl)-9-hydroxy-2-methyl-3,4,5,6,12,13-hexahydro-2H[1,4]diazocino[2,1-a]-2,6-naphthyridine-1,8,10(11H)-trione] | < 10 µM
CN(C)C(=O)CN1CCCCn2c(c3c(c(O)c2=O)C(=O)N(Cc2ccc(F)c(Cl)c2)CC3)C1=O [Example 13, 2-[11-(3-Chloro-4-fluorobenzyl)-9-hydroxy-1,8,10-trioxo-1,3,4,5,6,8,10,11,12,13-deca-hydro-2H-[1,4]diazocino[2,1-a]-2,6-naphthyridin-2-yl]-N,N-dimethylacetamide] | < 10 µM
CN1CC(=O)CCn2c(c3c(c(O)c2=O)C(=O)N(Cc2ccc(F)c(Cl)c2)CC3)C1=O [Example 25, 11-(3-Chloro-4-fluorobenzyl)-9-hydroxy-2-methyl-5,6,12,13-tetrahydro-2H[1,4]diazocino[2,1-a]-2,6-naphthyridine-1,4,8,10(3H, 11H)-tetrone] | < 10 µM
CC1CCCN(CCN2CCCC2)C(=O)c2c3c(c(O)c(=O)n21)C(=O)N(Cc1ccc(F)c(Cl)c1)CC3 (stereo not shown) [Example 34, 11-(3-Chloro-4-fluorobenzyl)-9-hydroxy-2-(2-pyrrolidinyl-1-ylethyl)-6-methyl-3,4,5,6,12,13-hexahydro-2H[1,4]diazocino[2,1-a]-2,6-naphthyridine-1,8,10(11H)-trione] | < 10 µM
CC1(C)C(=O)N(CCO)c2c3c(c(O)c(=O)n21)C(=O)N(Cc1ccc(F)c(Cl)c1)CC3 [Example 54, 8-(3-Chloro-4-fluorobenzyl)-6-hydroxy-1-(2-hydroxyethyl)-3,3-dimethyl-1,8,9,10-tetrahydroimidazo[2,1-a]-2,6-naphthyridine-2,5,7(3H)-trione] | < 10 µM
CN1CCCn2c(c3c(c(O)c2=O)C(=O)N(Cc2ccc(F)c(Cl)c2)CC3)C1=O [Example 3, 10-(3-Chloro-4-fluorobenzyl)-8-hydroxy-2-methyl-2,3,4,5,11,12-hexahydro[1,4]diazepino[2,1-a]-2,6-naphthyridine-1,7,9(10H)-trione] | < 10 µM
CC1CCCN(CCn2ccnc2)C(=O)c2c3c(c(O)c(=O)n21)C(=O)N(Cc1ccc(F)c(Cl)c1)CC3 (stereo not shown) [Example 36, 11-(3-Chloro-4-fluorobenzyl)-9-hydroxy-2-[2-(1H-imidazol-1-yl)ethyl]-6-methyl-3,4,5,6,12,13-hexahydro-2H[1,4]diazocino[2,1-a]-2,6-naphthyridine-1,8,10(11H)-trione] | < 10 µM
CC1(C)C(=O)N(CCCCO)c2c3c(c(O)c(=O)n21)C(=O)N(Cc1ccc(F)c(Cl)c1)CC3 [Example 56, 8-(3-Chloro-4-fluorobenzyl)-6-hydroxy-1-(4-hydroxybutyl)-3,3-dimethyl-1,8,9,10-tetrahydroimidazo[2,1-a]-2,6-naphthyridine-2,5,7(3H)-trione] | < 10 µM
CN1CCCCn2c(c3c(c(O)c2=O)C(=O)N(Cc2ccc(F)cc2)CC3)C1=O [Example 2, 11-(4-Fluorobenzyl)-9-hydroxy-2-methyl-3,4,5,6,12,13-hexahydro-2H[1,4]diazocino[2,1-a]-2,6-naphthyridine-1,8,10(11H)-trione] | < 10 µM
CN1CC(C)(C)CCn2c(c3c(c(O)c2=O)C(=O)N(Cc2ccc(F)c(Cl)c2)CC3)C1=O [Example 45, 11-(3-Chloro-4-fluorobenzyl)-9-hydroxy-2,4,4-trimethyl-3,4,5,6,12,13-hexahydro-2H[1,4]diazocino[2,1-a]-2,6-naphthyridine-1,8,10(11H)trione] | < 10 µM
O=C1OCCCn2c1c1c(c(O)c2=O)C(=O)N(Cc2ccc(F)c(Cl)c2)CC1 [Example 62, 10-(3-Chloro-4-fluorobenzyl)-8-hydroxy-4,5,11,12-tetrahydro-3H-[1,4]oxazepino[3,4-a]-2,6-naphthyridine-1,7,9(10H)-trione] | < 10 µM
CC1CCCN(CCO)C(=O)c2c3c(c(O)c(=O)n21)C(=O)N(Cc1ccc(F)c(Cl)c1)CC3 (stereo not shown) [Example 30, 11-(3-Chloro-4-fluorobenzyl)-9-hydroxy-2-(2-hydroxyethyl)-6-methyl-3,4,5,6,12,13-hexahydro-2H[1,4]diazocino[2,1-a]-2,6-naphthyridine-1,8,10(11H)-trione] | < 10 µM
CC(=O)OCCN1CCCCn2c(c3c(c(O)c2=O)C(=O)N(Cc2ccc(F)c(Cl)c2)CC3)C1=O [Example 10, 11-(3-Chloro-4-fluorobenzyl)-9-hydroxy-2-[2-(acetyloxy)ethyl]-3,4,5,6,12,13-hexahydro-2H[1,4]diazocino[2,1-a]-2,6-naphthyridine-1,8,10(11H)-trione] | < 10 µM
CN1CCC[C@H](CO)n2c(c3c(c(O)c2=O)C(=O)N(Cc2ccc(F)cc2)CC3)C1=O [Example 48, (6R) 11-(4-Fluorobenzyl)-9-hydroxy-6-(hydroxymethyl)-2-methyl-3,4,5,6,12,13-hexahydro-2H-[1,4]diazocino[2,1-a]2,6-naphthyridine-1,8,10(11H)-trione] | < 10 µM
CN1CCC[C@@H](CO)n2c(c3c(c(O)c2=O)C(=O)N(Cc2ccc(F)c(Cl)c2)CC3)C1=O [Example 49, (6S)-11-(3-Chloro-4-fluorobenzyl)-9-hydroxy-6-(hydroxymethyl)-2-methyl-3,4,5,6,12,13-hexahydro-2H-[1,4]diazocino[2,1-a]-2,6-naphthyridine-1,8,10(11H)-trione] | < 10 µM
NCCN1CCCCn2c(c3c(c(O)c2=O)C(=O)N(Cc2ccc(F)c(Cl)c2)CC3)C1=O [Example 19, 11-(3-Chloro-4-fluorobenzyl)-9-hydroxy-2-(2-aminoethyl)-3,4,5,6,12,13-hexahydro-2H[1,4]diazocino[2,1-a]-2,6-naphthyridine-1,8,10(11H)-trione] | < 10 µM
O=C1c2c(c3n(c(=O)c2O)CCCCN(CCN2CCOCC2)C3=O)CCN1Cc1ccc(F)c(Cl)c1 [Example 16, 11-(3-Chloro-4-fluorobenzyl)-9-hydroxy-2-(2-morpholin-4-ylethyl)-3,4,5,6,12,13-hexahydro-2H[1,4]diazocino[2,1a]-2,6-naphthyridine-1,8,10(11H)-trione] | < 10 µM
O=C1NCCCn2c1c1c(c(O)c2=O)C(=O)N(Cc2ccc(F)c(Cl)c2)CC1 [Example 4, 10-(3-Chloro-4-fluorobenzyl)-8-hydroxy-2,3,4,5,11,12-hexahydro[1,4]diazepino[2,1-a]-2,6-naphthyridine-1,7,9(10H)-trione] | < 10 µM
CC(=O)OCCN1C(=O)C(C)(C)n2c1c1c(c(O)c2=O)C(=O)N(Cc2ccc(F)c(Cl)c2)CC1 [Example 57, 8(3-Chloro-4-fluorobenzyl)-6-hydroxy-1-(2-acetyloxyethyl)-3,3-dimethyl-1,8,9,10-tetrahydroimidazo[2,1-a]-2,6-naphthyridine-2,5,7(3H)-trione] | < 10 µM
